The target in assay [1] is MAPK14 (UniProt Q16539). The experiment in a line: MAPK14 Binding Inhibition.
Assay [2] concerns the target MAPK14 (UniProt Q16539). The assay is described as follows: MAPK14 Kinase Inhibition.

SMILES strings stand for the structures. pIC50: −log10 of the molar value.

Usually pIC50 stands for the negative decadic logarithm of the IC50, by convention in mol/L. The low end stands for a high IC50, the high end for a low IC50.

Sequence of MAPK14 (Q16539 whole entry, looked up): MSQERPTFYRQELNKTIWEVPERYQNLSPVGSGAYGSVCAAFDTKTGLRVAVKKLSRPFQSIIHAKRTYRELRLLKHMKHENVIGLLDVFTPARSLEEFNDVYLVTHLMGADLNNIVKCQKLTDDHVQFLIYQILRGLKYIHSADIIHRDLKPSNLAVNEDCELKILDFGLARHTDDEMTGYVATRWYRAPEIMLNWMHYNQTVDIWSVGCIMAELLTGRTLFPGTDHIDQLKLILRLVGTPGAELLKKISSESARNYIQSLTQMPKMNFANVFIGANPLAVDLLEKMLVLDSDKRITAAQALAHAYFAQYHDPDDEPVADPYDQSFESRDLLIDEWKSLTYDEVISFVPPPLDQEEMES

At MAPK14 [1], `O[C@H]1CC[C@H](n2cnc(-c3ccc(F)cc3)c2-c2ccnc(Nc3ccccc3)n2)CC1` had an inhibition below 50 µM.

For the molecule `CN1CCC(n2cnc(-c3ccc(F)cc3)c2-c2ccnc(NCc3cccc(Cl)c3)n2)CC1`, on MAPK14 [1], the inhibition was below 50 µM. The same measure, in the same setting: then `CC1(C)CC(n2cnc(-c3ccc(F)cc3)c2-c2ccnc(Nc3ccccc3)n2)CC(C)(C)N1`, with below 50 µM; and `CN1CCC(n2cnc(-c3ccc(F)cc3)c2-c2ccnc(NC3CC(C)(C)NC(C)(C)C3)n2)CC1`, with below 50 µM.

For the molecule `O=C1CCC(n2cnc(-c3ccc(F)cc3)c2-c2ccnc(Nc3ccccc3)n2)CC1`, at MAPK14 [1], the inhibition was below 50 µM. With `Fc1ccc(-c2ncn(C3CCNCC3)c2-c2ccnc(NCCCn3ccnc3)n2)cc1`, the inhibition at MAPK14 [1] is below 50 µM. On MAPK14 [1], `CN1CCC(n2cnc(-c3ccc(F)cc3)c2-c2ccnc(NCCc3c[nH]c4ccc(Cl)cc34)n2)CC1` showed an inhibition below 50 µM. The same measure, in the same setting: then `CN1CCC(n2cnc(-c3ccc(F)cc3)c2-c2ccnc(NC3CCSCC3)n2)CC1`, with below 50 µM. For the molecule `CN1CCC(n2cnc(-c3ccc(F)cc3)c2-c2ccnc(Nc3ccccc3)n2)CC1`, the inhibition at MAPK14 [1] was below 50 µM. The molecule `Fc1ccc(-c2ncn(C3CCNCC3)c2-c2ccnc(Nc3ccccc3)c2)cc1` yielded an inhibition on MAPK14 [1] below 50 µM. `CN1CCC(n2cnc(-c3ccc(F)cc3)c2-c2ccnc(NCCO)n2)CC1` showed an inhibition at MAPK14 [1] below 50 µM.

Take `Fc1ccc(-c2ncn(C3CCNCC3)c2-c2ccnc(Nc3cccc(C(F)(F)F)c3)n2)cc1`: the pIC50 against MAPK14 [2] is above 4.30.

At MAPK14 [1], `CC1(C)CC(n2cnc(-c3ccc(F)cc3)c2-c2ccnc(NCCO)n2)CC(C)(C)N1` yielded an inhibition below 50 µM. Take `CSc1ccc(-c2ncn(C3CCNCC3)c2-c2ccnc(Nc3ccccc3)n2)cc1`: the pIC50 against MAPK14 [2] is above 4.30. Consider `CN1CCC(n2cnc(-c3ccc(F)cc3)c2-c2ccnc(NCc3ccccc3)n2)CC1`, for which the inhibition on MAPK14 [1] is below 50 µM. In turn, `CCOC(=O)N1CCC(n2cnc(-c3ccc(F)cc3)c2-c2ccnc(Nc3cccc(OCc4ccccc4)c3)n2)CC1` gave a pIC50 at MAPK14 [2] above 4.30. Still for that read-out and setting: then `Fc1ccc(-c2ncn(C3CCNCC3)c2-c2ccnc(Nc3ccc(F)c(F)c3)n2)cc1`, with above 4.30. `CN1CCC(n2cnc(-c3ccc(F)cc3)c2-c2ccnc(NCc3cccc4ccccc34)n2)CC1`: the inhibition at MAPK14 [1] is below 50 µM. At MAPK14 [2], `Oc1ccc(Nc2nccc(-c3c(-c4ccc(F)cc4)ncn3C3CCNCC3)n2)cc1` showed a pIC50 above 4.30. Still for that read-out and setting: then `COc1ccccc1Nc1nccc(-c2c(-c3ccc(F)cc3)ncn2C2CCNCC2)n1`, with above 4.30; and `COc1cccc(Nc2nccc(-c3c(-c4ccc(F)cc4)ncn3C3CCNCC3)n2)c1`, with above 4.30.

Molecule `CCOC(=O)N1CCC(n2cnc(-c3ccc(F)cc3)c2-c2ccnc(Nc3ccc(OCc4ccccc4)cc3)n2)CC1` gave a pIC50 against MAPK14 [2] above 4.30. The molecule `Fc1ccc(-c2ncn(C3CCNCC3)c2-c2ccnc(Nc3ccccc3F)n2)cc1` showed a pIC50 against MAPK14 [2] above 4.30.

`Fc1ccc(-c2ncn(C3CCNCC3)c2-c2ccnc(Nc3cccc(Br)c3)n2)cc1` registered an inhibition on MAPK14 [1] below 50 µM. In the case of `COc1ccc(Nc2nccc(-c3c(-c4ccc(F)cc4)ncn3C3CCNCC3)n2)cc1`, the pIC50 against MAPK14 [2] is above 4.30. The molecule `CN1CCC(n2cnc(-c3ccc(F)cc3)c2-c2ccnc(NCCCN3CCOCC3)n2)CC1` displayed an inhibition on MAPK14 [1] below 50 µM. For the molecule `CCOC(=O)N1CCC(Nc2nccc(-c3c(-c4ccc(F)cc4)ncn3C3CCN(C)CC3)n2)CC1`, the inhibition at MAPK14 [1] is below 50 µM.

For the molecule `NCCNc1nccc(-c2c(-c3ccc(F)cc3)ncn2C2CCNCC2)n1`, the inhibition at MAPK14 [1] was below 50 µM.

As for `Fc1ccc(-c2ncn(C3CCNCC3)c2-c2ccnc(Nc3ccccc3)n2)cc1`, the inhibition on MAPK14 [1] is below 50 µM. For `Fc1ccc(-c2ncn(C3CCNCC3)c2-c2ccnc(Nc3cccc(F)c3)n2)cc1`, the pIC50 against MAPK14 [2] was above 4.30.

At MAPK14 [1], `CN1CCC(n2cnc(-c3ccc(F)cc3)c2-c2ccnc(NCc3cccc4c3OCO4)n2)CC1` displayed an inhibition below 50 µM. Still for that read-out and setting: then `CCOCCCNc1nccc(-c2c(-c3ccc(F)cc3)ncn2C2CCNCC2)n1`, with below 50 µM. For the molecule `Oc1cccc(Nc2nccc(-c3c(-c4ccc(F)cc4)ncn3C3CCNCC3)n2)c1`, the pIC50 against MAPK14 [2] is above 4.30.

The molecule `CN1CCC(n2cnc(-c3ccc(F)cc3)c2-c2ccnc(NC3CCNCC3)n2)CC1` displayed an inhibition at MAPK14 [1] below 50 µM.

Take `CN1CCC(n2cnc(-c3ccc(F)cc3)c2-c2ccnc(NC3CCN(Cc4ccccc4)CC3)n2)CC1`: the inhibition at MAPK14 [1] was below 50 µM.

Molecule `Fc1ccc(Nc2nccc(-c3c(-c4ccc(F)cc4)ncn3C3CCNCC3)n2)cc1` showed a pIC50 against MAPK14 [2] above 4.30. `C[S+]([O-])c1ccc(-c2ncn(C3CCNCC3)c2-c2ccnc(Nc3ccccc3)n2)cc1` (configuration not stated): the pIC50 on MAPK14 [2] was above 4.30.

These data come from the Kinase Knowledgebase extract (Sharma et al. 2016).
